Results as given in ChEMBL document CHEMBL5214968, “Recent Scaffold Hopping Applications in Central Nervous System Drug Discovery” (J Med Chem, 2022).

What was measured:
Cannabinoid receptor 2 = Cannabinoid receptor 2 (Homo sapiens, UniProt P34972); assay: Agonist activity at human CB2 receptor expressed in mouse AtT20 cells by FLIPR assay; type: functional, cell-based
Cannabinoid receptor 1 = Cannabinoid receptor 1 (Homo sapiens, UniProt P21554); assay: Agonist activity at human CB1 receptor expressed in mouse AtT20 cells by FLIPR assay; type: functional, cell-based
Chain of Cannabinoid receptor 1 (P21554 whole entry): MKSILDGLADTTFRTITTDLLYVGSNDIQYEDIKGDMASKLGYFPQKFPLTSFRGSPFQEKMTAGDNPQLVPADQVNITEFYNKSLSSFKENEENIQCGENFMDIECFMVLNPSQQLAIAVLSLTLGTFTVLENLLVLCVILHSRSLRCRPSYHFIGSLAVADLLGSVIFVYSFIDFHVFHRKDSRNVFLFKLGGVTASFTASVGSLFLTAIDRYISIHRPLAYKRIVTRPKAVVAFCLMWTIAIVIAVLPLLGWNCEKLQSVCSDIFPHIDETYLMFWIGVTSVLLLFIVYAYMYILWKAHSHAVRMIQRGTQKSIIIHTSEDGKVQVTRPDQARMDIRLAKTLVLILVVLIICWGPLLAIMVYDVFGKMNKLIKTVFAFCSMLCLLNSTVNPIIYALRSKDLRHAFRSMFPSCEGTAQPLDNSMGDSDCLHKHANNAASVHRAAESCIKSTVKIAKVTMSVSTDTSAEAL

[1] = target: Microtubule-associated protein tau (Homo sapiens) (UniProt P10636); assay: Inhibition of heparin-induced tau protein (unknown origin) aggregation at 100 uM incubated for 3 days by Thioflavin T fluorescence assay; settings: time 3.0 day
Chain of Microtubule-associated protein tau (Homo sapiens) (P10636 whole entry): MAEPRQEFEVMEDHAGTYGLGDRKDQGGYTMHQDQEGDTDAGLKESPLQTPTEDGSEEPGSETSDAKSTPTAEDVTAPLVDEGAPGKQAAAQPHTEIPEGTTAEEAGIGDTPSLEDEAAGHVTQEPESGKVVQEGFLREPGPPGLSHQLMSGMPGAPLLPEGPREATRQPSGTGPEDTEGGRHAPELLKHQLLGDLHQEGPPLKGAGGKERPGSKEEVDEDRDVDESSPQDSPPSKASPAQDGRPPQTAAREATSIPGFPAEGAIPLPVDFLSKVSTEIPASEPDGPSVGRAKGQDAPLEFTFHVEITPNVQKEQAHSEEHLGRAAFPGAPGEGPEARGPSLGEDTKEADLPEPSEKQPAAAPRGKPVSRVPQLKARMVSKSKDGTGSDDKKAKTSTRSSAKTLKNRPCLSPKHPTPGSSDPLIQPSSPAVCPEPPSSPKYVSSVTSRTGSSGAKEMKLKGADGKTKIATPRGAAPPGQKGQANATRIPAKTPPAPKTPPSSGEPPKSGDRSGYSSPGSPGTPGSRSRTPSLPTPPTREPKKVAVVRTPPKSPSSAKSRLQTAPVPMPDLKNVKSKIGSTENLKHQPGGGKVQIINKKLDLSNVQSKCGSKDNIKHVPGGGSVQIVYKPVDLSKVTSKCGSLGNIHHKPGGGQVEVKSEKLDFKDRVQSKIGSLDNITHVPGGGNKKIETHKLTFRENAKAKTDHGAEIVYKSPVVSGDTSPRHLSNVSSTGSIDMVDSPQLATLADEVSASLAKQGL

[2] = target: T1, Cyclin-G-associated kinase (Homo sapiens, UniProt O14976); assay: Binding affinity to GAK (unknown origin) by KINOMEscan analysis
T1 sequence (O14976 whole entry): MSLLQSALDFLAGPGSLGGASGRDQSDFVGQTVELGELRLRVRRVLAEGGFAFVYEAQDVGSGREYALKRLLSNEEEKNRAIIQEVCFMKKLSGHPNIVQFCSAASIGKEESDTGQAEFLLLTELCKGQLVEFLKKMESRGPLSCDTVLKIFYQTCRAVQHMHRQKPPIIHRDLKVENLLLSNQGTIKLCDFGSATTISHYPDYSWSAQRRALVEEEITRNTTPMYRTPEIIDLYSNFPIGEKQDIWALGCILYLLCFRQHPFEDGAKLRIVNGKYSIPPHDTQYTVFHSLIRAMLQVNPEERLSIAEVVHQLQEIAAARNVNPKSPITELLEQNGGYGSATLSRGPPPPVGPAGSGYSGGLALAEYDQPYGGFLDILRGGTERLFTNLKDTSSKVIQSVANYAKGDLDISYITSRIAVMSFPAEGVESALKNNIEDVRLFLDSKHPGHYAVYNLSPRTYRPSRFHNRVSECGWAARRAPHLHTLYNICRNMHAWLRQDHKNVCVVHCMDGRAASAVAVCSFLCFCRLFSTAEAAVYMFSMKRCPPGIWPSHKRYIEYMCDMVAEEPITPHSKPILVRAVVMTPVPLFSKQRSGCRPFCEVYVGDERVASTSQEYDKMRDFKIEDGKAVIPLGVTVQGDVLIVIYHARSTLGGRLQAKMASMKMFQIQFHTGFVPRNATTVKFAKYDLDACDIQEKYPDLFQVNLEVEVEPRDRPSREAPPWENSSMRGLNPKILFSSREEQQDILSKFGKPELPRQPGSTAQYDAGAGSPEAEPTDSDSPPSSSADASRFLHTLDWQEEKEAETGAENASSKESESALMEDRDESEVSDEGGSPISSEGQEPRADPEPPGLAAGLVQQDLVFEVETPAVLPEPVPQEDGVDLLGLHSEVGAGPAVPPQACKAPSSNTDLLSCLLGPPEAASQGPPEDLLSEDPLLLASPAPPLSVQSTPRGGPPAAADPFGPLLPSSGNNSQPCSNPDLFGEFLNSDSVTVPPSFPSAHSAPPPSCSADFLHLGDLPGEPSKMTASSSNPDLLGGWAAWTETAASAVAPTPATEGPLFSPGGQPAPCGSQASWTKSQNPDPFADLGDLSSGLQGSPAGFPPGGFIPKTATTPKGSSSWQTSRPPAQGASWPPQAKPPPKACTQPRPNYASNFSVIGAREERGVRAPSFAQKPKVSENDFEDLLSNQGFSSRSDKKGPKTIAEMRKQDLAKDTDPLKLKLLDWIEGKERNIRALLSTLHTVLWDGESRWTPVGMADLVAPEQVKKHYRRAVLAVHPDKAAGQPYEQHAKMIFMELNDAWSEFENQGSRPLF

Mu-type opioid receptor = Mu-type opioid receptor (Homo sapiens, UniProt P35372); assay: Displacement of [3H]DAMGO from human cloned mu-opioid receptor by radioligand binding assay
Chain of Mu-type opioid receptor (P35372 whole entry): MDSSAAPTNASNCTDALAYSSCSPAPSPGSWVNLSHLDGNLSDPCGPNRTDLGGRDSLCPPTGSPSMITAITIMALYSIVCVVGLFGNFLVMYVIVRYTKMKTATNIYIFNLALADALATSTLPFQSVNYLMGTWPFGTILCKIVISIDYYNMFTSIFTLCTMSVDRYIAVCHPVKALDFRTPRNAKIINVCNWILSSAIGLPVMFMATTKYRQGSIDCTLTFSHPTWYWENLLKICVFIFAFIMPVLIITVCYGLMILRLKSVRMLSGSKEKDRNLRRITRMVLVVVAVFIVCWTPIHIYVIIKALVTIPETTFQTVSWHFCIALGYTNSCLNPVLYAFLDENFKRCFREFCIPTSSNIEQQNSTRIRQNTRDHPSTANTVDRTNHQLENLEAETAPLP

Chain of Cannabinoid receptor 2 (P34972 whole entry): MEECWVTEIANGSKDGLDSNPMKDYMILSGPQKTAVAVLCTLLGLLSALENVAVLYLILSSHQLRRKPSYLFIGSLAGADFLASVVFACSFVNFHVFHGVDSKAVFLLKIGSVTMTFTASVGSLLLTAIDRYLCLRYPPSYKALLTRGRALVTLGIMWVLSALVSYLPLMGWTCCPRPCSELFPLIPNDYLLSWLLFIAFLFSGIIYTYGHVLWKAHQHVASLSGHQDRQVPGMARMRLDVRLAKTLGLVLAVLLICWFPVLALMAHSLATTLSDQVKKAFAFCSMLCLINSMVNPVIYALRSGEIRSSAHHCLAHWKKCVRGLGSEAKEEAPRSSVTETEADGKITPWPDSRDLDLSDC

Compound: CC(C)(NC(=O)c1nn(CCCCCF)c2ccccc12)c1ccccc1
- EC50 (Cannabinoid receptor 2): 11.2 nM
- EC50 (Cannabinoid receptor 1): 0.43 nM

Compound: C=CCO/N=C(\C(=O)NC1CC1)c1cscc1C(=O)Nc1ccc(F)cc1
- inhibition [1]: 33%

Compound: O=C(NC1CC1)c1nn(-c2ccc(F)cc2)c(=O)c2cscc12
- inhibition [1]: 51%

Compound: CC(C)(NC(=O)c1cn(CCCCCF)c2ncccc12)c1ccccc1
- EC50 (Cannabinoid receptor 2): 11.3 nM
- EC50 (Cannabinoid receptor 1): 4.7 nM

Compound: CC(C)(NC(=O)c1cn(CCCCCF)c2ccccc12)c1ccccc1
- EC50 (Cannabinoid receptor 2): 39.6 nM
- EC50 (Cannabinoid receptor 1): 2.8 nM

Compound: COc1ccc(-c2cnc3c(c2)nnn3-c2ccccc2)cc1OC
- Kd [2]: > 30000 nM

Compound: O=C(NC1CC1)/C(=N\O)c1cscc1C(=O)NC12CC3CC(CC(C3)C1)C2
- inhibition [1]: 30%

Compound: O=C(NCCc1ccccc1)[C@H]1CCN(C(=O)Cc2ccc(O)cc2)[C@@H]1C(=O)NCCc1c[nH]c2ccccc12
- Ki (Mu-type opioid receptor): 820 nM
